Results reported in patent US20060293307A1, “Oxazolidinone derivatives as antimicrobials” (priority 2002, published 2006).

Columns and labels:
Experiment in all cases: MIC, agar incorporation method
S. pneumoniae AB-2 = format: cell-based, Streptococcus pneumoniae; details: S. No. 31, S. pneumoniae AB-2
S. pneumoniae AB 16 = format: cell-based, Streptococcus pneumoniae; details: S. No. 39, S. pneumoniae AB 16
(MRSA) 562 = format: cell-based, Staphylococcus aureus; details: S. No. 8, (MRSA) 562
S. aureus ATCC29213 = format: cell-based, Staphylococcus aureus; details: S. No. 2, S. aureus ATCC29213
S. pneumoniae 217 = format: cell-based, Streptococcus pneumoniae; details: S. No. 38, S. pneumoniae 217
S. pneumoniae AB 34 = format: cell-based, Streptococcus pneumoniae; details: S. No. 49, S. pneumoniae AB 34
E. faecalis 29212 = format: cell-based; details: S. No. 17, E. faecalis 29212
S pneumoniae 1294. = format: cell-based, Streptococcus pneumoniae; details: S. No. 55, S pneumoniae 1294.
E. coli 25922 = format: cell-based; details: S. No. 25, E. coli 25922
E. durans 581 = format: cell-based; details: S. No. 24, E. durans 581
Moraxella M1 = format: cell-based; details: S. No. 58, Moraxella M1
S. pneumoniae AB 22 = format: cell-based, Streptococcus pneumoniae; details: S. No. 42, S. pneumoniae AB 22
S. epidermidis 823 = format: cell-based, Staphylococcus epidermidis; details: S. No. 12, S. epidermidis 823
S. pneumoniae AB 25 = format: cell-based, Streptococcus pneumoniae; details: S. No. 45, S. pneumoniae AB 25
[1] = system: S. epidermidis (MRSE) 23760; format: cell-based, Staphylococcus epidermidis; details: S. No. 11, S. epidermidis (MRSE) 23760
S. pneumoniae AB4 = format: cell-based, Streptococcus pneumoniae; details: S. No. 33, S. pneumoniae AB4
S. pneumoniae AB 21 = format: cell-based, Streptococcus pneumoniae; details: S. No. 41, S. pneumoniae AB 21
S. pneumoniae ATCC 6303 = format: cell-based, Streptococcus pneumoniae; details: S. No. 50, S. pneumoniae ATCC 6303
S. pneumoniae AB 10 = format: cell-based, Streptococcus pneumoniae; details: S. No. 35, S. pneumoniae AB 10
[2] = system: S. epidermidis (MRSE)32965; format: cell-based, Staphylococcus epidermidis; details: S. No. 13, S. epidermidis (MRSE)32965
S. pneumoniae AB 29 = format: cell-based, Streptococcus pneumoniae; details: S. No. 46, S. pneumoniae AB 29
S. pneumoniae AB 30 = format: cell-based, Streptococcus pneumoniae; details: S. No. 47, S. pneumoniae AB 30
S. pneumoniae 1251 = format: cell-based, Streptococcus pneumoniae; details: S. No. 54, S. pneumoniae 1251
Moraxella cata. M2 = format: cell-based; details: S. No. 59, Moraxella cata. M2
S. aureus (MRSA) 15187 = format: cell-based, Staphylococcus aureus; details: S. No. 4, S. aureus (MRSA) 15187
[3] = system: Serratia marcescens 12999; format: cell-based; details: S. No. 29, Serratia marcescens 12999
P. aeruginosa ATCC 27853 = format: cell-based; details: S. No. 28, P. aeruginosa ATCC 27853
S. pneumoniae 1275 = format: cell-based, Streptococcus pneumoniae; details: S. No. 57, S. pneumoniae 1275
E. faecium 6A (VRE) = format: cell-based, Enterococcus faecium; details: S. No. 21, E. faecium 6A (VRE)
[4] = system: S. epidermidis ATCC 12228; format: cell-based, Staphylococcus epidermidis; details: S. No. 10, S. epidermidis ATCC 12228
S. pyogenes 20361 = format: cell-based, Streptococcus pyogenes; details: S. No. 53, S. pyogenes 20361
Salmonella 205 = format: cell-based; details: S. No. 26, Salmonella 205
Procedure, shortened: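 Doubling dilutions of compound in DMSO were incorporated into Mueller-Hinton agar; 10^4 CFU/spot inoculated from 0.5 McFarland suspensions and incubated 18 h (24 h for MRSN studies). MIC = lowest concentration without visible growth; valid only when ATCC reference strains gave in-range MICs.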

Measured: MIC

(S)—N-[[3-[-3-Fluoro-4-[(5-nitro-2-thienyl)-3-methyl-1-piperazinyl]phenyl]-2-oxo-5-oxazolidinyl]methyl]acetamide [Compound No. 10]
0.25 µg/mL: S. pneumoniae AB 10 | S. pneumoniae AB 30 | S. pneumoniae 1275 | [4]
>8 µg/mL: E. coli 25922 | [3] | P. aeruginosa ATCC 27853 | Salmonella 205
2 µg/mL: Moraxella M1 | Moraxella cata. M2
1 µg/mL: (MRSA) 562 | S. aureus ATCC29213 | S. pneumoniae AB 34 | E. faecalis 29212 | S. aureus (MRSA) 15187 | E. faecium 6A (VRE)
0.5 µg/mL: all other assays above
